Laboratory results reported in patent publication US20050069522A1, “Combination pharmaceutical agents as inhibitors of HCV replication” (priority 2002, published 2005).
Where two headings read alike, the source gives them in different places.

Legend:
[1] = test system: HCV replicon (HCV 1b-377-neo replicon cells); assay: HCV replicon cell line FRET assay; type: cell-based; conditions: Hepatitis C virus
[2] = Alamar blue cytotoxicity (CC50), wild-type replicon cells; type: cell-based; conditions: human, Huh-7 cells carrying the wild-type HCV 377-neo replicon; Wild-type replicon cell line
[3] = human
[4] = test system: wild-type Blast/Luciferase HCV replicon; type: cell-based; conditions: 0.5 μM Compound 124
[5] = read-out: Replicon Inhibition Range EC50
[6] = Wild-type replicon cell line, FRET assay, read-out: EC50
[7] = HCV replicon cell line, FRET assay, read-out: Replicon Inhibition Range EC50

| Structure (SMILES) | EC50 [1, 5] [nM] | EC50 [1, 6] [nM] | CC50 at 72 h [2] [nM] | CC50 at 72 h [3] [nM] | replication of the replicon in the presence of compound [4] | EC50 [1, 7] [nM] |
| --- | --- | --- | --- | --- | --- | --- |
| C[C@H](NC(=O)OCc1ccccc1)C(=O)Nc1ccc(C2S/C(=N\c3cccc(F)c3)N(Cc3ccco3)C2=O)cc1 (stereo partly drawn) [Compound 1, (1S-(4-[2-(3-Fluorophenylimino)-3-furan-2-ylmethyl-4-oxo-thiazolidin-5-yl]-phenylcarbamoyl)ethyl)carbamic acid benzyl ester] | 100 to 1000 | 1500 | > 5000 | > 5000 | – | – |
| C[C@H](NC(=O)Cc1ccccc1)C(=O)Nc1ccc(C2S/C(=N\c3cccc(F)c3)N(Cc3ccco3)C2=O)cc1 (stereo partly drawn) [Compound 124, (N-{4-[2-(3-fluorophenylimino)-3-furan-2-ylmethyl-4-oxo-thiazolidin-5-yl]phenyl}-2S-(phenylacetylamino))propionamide] | < 100 | 103 | > 5000 | > 5000 | completely inhibited | – |
| O=C(Nc1ccc(C2S/C(=N\c3ccc(N4CCOCC4)cc3)N(Cc3ccccn3)C2=O)cc1)[C@@H]1CCCN1C(=S)NCc1ccccc1 (stereo partly shown) [Compound 136] | – | – | – | – | – | < 100 |
| C[C@H](NC(=O)Cc1ccccc1)C(=O)Nc1ccc(C2SC3=Nc4ccccc4CN3C2=O)cc1 (stereo partly shown) [Compound 137] | – | – | – | – | – | 100 to 1000 |
| C[C@H](NC(=O)OCc1ccccc1)C(=O)Nc1ccc(C2SC3=Nc4ccccc4CN3C2=O)cc1 (stereo partly shown) [Compound 138] | – | – | – | – | – | 1000 to 5000 |
| O=C(Nc1ccc(C2SC3=Nc4ccccc4CN3C2=O)cc1)[C@H]1CCCN1C(=O)OCc1ccccc1 (stereo partly shown) [Compound 139] | – | – | – | – | – | 100 to 1000 |
